# Measured values: PMC10615177 (ACS infectious diseases, 2023)
# Like-named read-outs stand apart in the source and are kept apart here.
# What was measured:
# [1] = system: M. smegmatis; assay: M. smegmatis cell growth inhibition; assay type: cell-based, Mycobacterium smegmatis
# [2] = system: M. tuberculosis HN878; assay: M. tuberculosis HN878 growth inhibition; assay type: cell-based, Mycobacterium tuberculosis; conditions: for MIC: HN878, read-out: Mtb HN878 MIC
# [3] = system: M. tuberculosis Erdman; assay: M. tuberculosis Erdman growth inhibition; assay type: cell-based, Mycobacterium tuberculosis; conditions: for MIC: Mycobacterium tuberculosis, ERDMAN, read-out: Mtb Erdman MIC
# [4] = system: M. tuberculosis H37Rv; assay: M. tuberculosis H37Rv growth inhibition; assay type: cell-based, Mycobacterium tuberculosis; conditions: for MIC: Mycobacterium tuberculosis, H37RV, read-out: Mtb H37Rv MIC
# [5] = system: M. abscessus smooth variant; assay: microbe, parasite or virus in culture; assay type: cell-based
# [6] = system: M. abscessus rough variant; assay: microbe, parasite or virus in culture; assay type: cell-based
# [7] = system: Bacillus subtilis; assay: B. subtilis growth inhibition; assay type: cell-based; conditions: read-out: Bs IC50
# [8] = system: E. coli; assay: E. coli growth inhibition; assay type: cell-based, Escherichia coli
# [9] = system: T. brucei bloodstream forms; assay: T. brucei bloodstream form growth inhibition; assay type: cell-based, Trypanosoma brucei; conditions: read-out: T. brucei IC50
# [10] = system: T. cruzi Dm28c epimastigotes; assay: T. cruzi epimastigote growth inhibition; assay type: cell-based, Trypanosoma cruzi; conditions: read-out: T. cruzi IC50 (EPI)
# [11] = system: T. cruzi Dm28c intracellular amastigotes; assay: T. cruzi intracellular amastigote inhibition; assay type: cell-based, Trypanosoma cruzi; conditions: read-out: T. cruzi IC50 (PAR)
# [12] = system: L. donovani promastigotes; assay: L. donovani promastigote growth inhibition; assay type: cell-based, Leishmania donovani; conditions: read-out: L. donovani IC50
# [13] = molecular target: M. tuberculosis MmpL3 (MtMmpL3) (Mycobacterium tuberculosis, UniProt P9WJV5); assay: Surface plasmon resonance binding to MmpL3
# [14] = DSC of DMPC bilayers with inhibitor; assay type: physicochemical
# [15] = DSC of DSPG bilayers with inhibitor; assay type: physicochemical
# [16] = system: U2OS host cells; assay: U2OS host cell growth inhibition; conditions: read-out: T. cruzi CC50 (U20S)
# [17] = system: L. mexicana promastigotes; assay: L. mexicana promastigote growth inhibition; assay type: cell-based, Leishmania mexicana; conditions: Leishmania mexicana, read-out: L. mexicana IC50, promastigotes
# [18] = system: Plasmodium falciparum asexual blood stages; assay: P. falciparum asexual blood stage; assay type: cell-based; conditions: Plasmodium falciparum, read-out: PfABS IC50 (μM ± S.E.), asexual blood stages
# [19] = in vitro; conditions: human
# [20] = in vitro; conditions: human; remark: listed apart in the source
# [21] = read-out: Ms IC50, M. smegmatis
# [22] = read-out: KD, 1:1 model, 1:1 binding model, from ratio of rate constants
# [23] = read-out: KD, 2-state, two-state model, from rate constants
# [24] = 10 wt % inhibitor, PBS pH 7.4, heating
# [25] = Mycolicibacterium smegmatis, read-out: Ms IC50, M. smegmatis
# [26] = Mycobacterium tuberculosis, HN878, read-out: Mtb HN878 IC50, dose-response curves
# [27] = KD, 1:1 model, 1:1 binding model, from ratio of rate constants
# [28] = KD, 2-state, two-state model, from rate constants
# M. tuberculosis MmpL3 (MtMmpL3), sequence (P9WJV5 whole entry): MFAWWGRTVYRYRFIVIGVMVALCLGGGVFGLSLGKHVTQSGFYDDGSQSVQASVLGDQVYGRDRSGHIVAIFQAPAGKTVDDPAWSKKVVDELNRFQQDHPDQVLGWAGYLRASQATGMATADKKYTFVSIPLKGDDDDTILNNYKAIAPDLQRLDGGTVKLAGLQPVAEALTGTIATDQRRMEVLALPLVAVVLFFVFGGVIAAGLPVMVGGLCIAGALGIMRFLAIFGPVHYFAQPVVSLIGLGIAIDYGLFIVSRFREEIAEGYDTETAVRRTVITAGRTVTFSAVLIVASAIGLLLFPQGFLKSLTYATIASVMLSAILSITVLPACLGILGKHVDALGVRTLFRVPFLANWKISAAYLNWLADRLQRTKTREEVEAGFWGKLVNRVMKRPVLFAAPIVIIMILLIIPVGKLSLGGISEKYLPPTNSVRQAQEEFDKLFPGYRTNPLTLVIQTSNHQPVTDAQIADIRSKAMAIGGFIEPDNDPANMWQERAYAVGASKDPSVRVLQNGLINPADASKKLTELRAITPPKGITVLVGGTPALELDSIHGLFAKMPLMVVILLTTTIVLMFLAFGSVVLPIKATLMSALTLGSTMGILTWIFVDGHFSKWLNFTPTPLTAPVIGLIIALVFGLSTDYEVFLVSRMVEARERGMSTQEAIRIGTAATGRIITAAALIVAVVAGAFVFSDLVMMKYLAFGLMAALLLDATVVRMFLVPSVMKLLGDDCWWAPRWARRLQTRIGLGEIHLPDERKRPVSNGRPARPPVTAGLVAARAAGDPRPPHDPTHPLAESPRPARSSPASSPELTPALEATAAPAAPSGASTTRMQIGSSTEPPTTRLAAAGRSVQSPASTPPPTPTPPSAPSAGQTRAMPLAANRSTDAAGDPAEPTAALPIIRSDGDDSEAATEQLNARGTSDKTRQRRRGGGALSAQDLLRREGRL
smiles,measurement,setting,value
"CCCCCCC1(NCCNCC=C(C)CCC=C(C)C)C2CC3CC(C2)CC1C3 (stereo not drawn) [Compound 8f, N-(3,7-dimethylocta-2,6-dien-1-yl)-N´-(2-hexyladamantan-2-yl)ethane-1,2-diamine]",IC50,[1]; [21],4.7 µM
same,IC50,"[2]; read-out: Mtb HN878 IC50, dose-response curves",3.4 ± 0.6 µM
same,Mtb HN878 MIC,[2]; visual inspection,3 µM
same,Mtb Erdman MIC,[3],12 µM
same,Mtb H37Rv MIC,[4],12 µM
same,Ma(S) MIC,[5],12 µM
same,Ma(R) MIC,[6],12 µM
same,IC50,[7],1 µM
same,IC50,[8]; read-out: Ec IC50,9.2 µM
same,IC50,[9]; bloodstream forms,0.98 ± 0.09 µM
same,IC50,[10]; epimastigotes,8.2 ± 0.4 µM
same,IC50,[11]; intracellular amastigotes in U2OS host cells,1.3 ± 0.07 µM
same,IC50,[12]; promastigotes,8.8 ± 0.4 µM
same,koff,[13]; 1:1 Langmuir binding model,0.2964 s⁻¹
same,Kd,[13]; [22],67 µM
same,Kd,[13]; [23],81 µM
same,ka1,[13]; two-state model,4642 M⁻¹ s⁻¹
same,ka2,[13]; two-state model,0.008637 s⁻¹
same,kd1,[13]; two-state model,0.4552 s⁻¹
same,kd2,[13]; two-state model,0.03992 s⁻¹
same,Tm (main transition),[14]; [24],13.8 °C
same,ΔH,[14]; [24],5.88 kcal/mol
same,ΔT1/2,[14]; [24],5.1 °C
same,Broadening of main transition peak ΔΤ1/2 compared to pure DMPC,[14]; heating,4.4 °C
same,Decrease of Tm compared to DMPC without inhibitor,[14]; heating,~9.7 °C
same,Tm (main transition),[15]; [24],49.1 °C
same,ΔH,[15]; [24],8.75 kcal/mol
same,ΔT1/2,[15]; [24],1.7 °C
same,Broadening of main transition peak ΔΤ1/2 compared to pure DSPG,[15]; heating,0.2–1.6 °C
same,Decrease of Tm compared to DSPG alone,[15]; heating,~ 5 °C
same,CC50,[16],4.1 ± 1 µM
"CC(C)=CCCC(C)=CCNCCNC1(c2ncc(-c3ccccc3)s2)C2CC3CC(C2)CC1C3 (stereo not drawn) [Compound 8i, N-(3,7-dimethylocta-2,6-dien-1-yl)-N´-(2-(5-phenylthiazol-2-yl)adamantan-2-yl)ethane-1,2-diamine]",IC50,[1]; [21],21 µM
same,Ma(S) MIC,[5],21.5 µM
same,Ma(R) MIC,[6],21.5 µM
same,koff,[13]; 1:1 Langmuir binding model,0.4902 s⁻¹
same,Kd,[13]; [22],87 µM
same,Kd,[13]; [23],91 µM
same,ka1,[13]; two-state model,3946 M⁻¹ s⁻¹
same,ka2,[13]; two-state model,0.006253 s⁻¹
same,kd1,[13]; two-state model,0.434 s⁻¹
same,kd2,[13]; two-state model,0.03057 s⁻¹
"CC(C)=CCCC(C)=CCNCC(=O)NC(C)(C)C12CC3CC(CC(C3)C1)C2 [Compound 11, N-(2-(adamantan-1-yl)propan-2-yl)-2-((3,7-dimethylocta-2,6-dien-1-yl)amino)acetamide]",IC50,[1]; [25],44 ± 4 µM
same,IC50,[2]; [26],13 ± 2 µM
same,MIC,[2]; Mycobacterium tuberculosis,12.5 µM
same,MIC,[3],19 µM
same,MIC,[4],19 µM
same,Ec IC50,[8],No inhibition
same,IC50,[9]; Trypanosoma brucei,6.2 ± 0.2 µM
same,IC50,[10]; Trypanosoma cruzi,16 ± 4 µM
same,IC50,"[11]; Trypanosoma cruzi, U2OS",4.4 ± 0.3 µM
same,IC50,[12]; Leishmania donovani,5 ± 0.6 µM
same,IC50,[17],5.2 ± 0.2 µM
same,IC50,[18],7.63 ± 1.13 µM
same,CC50,[19],6.9 ± 0.1 µM
same,viability at 20 µM,[20],100%
"CC(C)=CCCC(C)=CCNC(=O)CNC1(C)C2CC3CC(C2)CC1C3 (stereo not drawn) [Compound 14b, N-(3,7-dimethylocta-2,6-dien-1-yl)-2-((2-methyl-2-adamantanyl)amino)acetamide]",IC50,[1]; [25],9 µM
same,IC50,[2]; [26],4.9 ± 0.1 µM
same,MIC,[2]; Mycobacterium tuberculosis,6.25 µM
same,MIC,[3],20 µM
same,MIC,[4],30 µM
same,Ec IC50,[8],No inhibition
same,IC50,[9]; Trypanosoma brucei,6.6 ± 0.03 µM
same,IC50,[10]; Trypanosoma cruzi,18 ± 4 µM
same,IC50,"[11]; Trypanosoma cruzi, U2OS",2.3 ± 0.2 µM
same,IC50,[12]; Leishmania donovani,11 ± 0.9 µM
same,IC50,[17],2.4 ± 0.7 µM
same,IC50,[18],6.47 ± 0.65 µM
same,koff,[13],0.751 s⁻¹
same,kon,[13],1760 M⁻¹ s⁻¹
same,Kd,[13]; [27],426 µM
same,Kd,[13]; [28],531 µM
same,ka1,[13]; two-state model,1917 M⁻¹ s⁻¹
same,ka2,[13]; two-state model,0.009268 s⁻¹
same,kd1,[13]; two-state model,1.363 s⁻¹
same,kd2,[13]; two-state model,0.02741 s⁻¹
same,CC50,[19],7.2 ± 0.9 µM
same,viability at 20 µM,[20],94%
"CCCC1(NCC(=O)NCC=C(C)CCC=C(C)C)C2CC3CC(C2)CC1C3 (stereo not drawn) [Compound 14d, N-(3,7-dimethylocta-2,6-dien-1-yl)-2-((2-propyladamantan-2-yl)amino)acetamide]",IC50,[1]; [25],49 ± 5 µM
same,IC50,[2]; [26],> 25 µM
same,MIC,[2]; Mycobacterium tuberculosis,25 µM
same,MIC,[3],32 µM
same,MIC,[4],32 µM
same,Ec IC50,[8],No inhibition
same,IC50,[9]; Trypanosoma brucei,2.3 ± 0.1 µM
same,IC50,[10]; Trypanosoma cruzi,14 ± 5 µM
same,IC50,"[11]; Trypanosoma cruzi, U2OS",2.8 ± 0.3 µM
same,IC50,[12]; Leishmania donovani,8.4 ± 2 µM
same,IC50,[17],0.73 ± 0.2 µM
same,IC50,[18],5.27 ± 0.41 µM
same,koff,[13],0.754 s⁻¹
same,kon,[13],3000 M⁻¹ s⁻¹
same,Kd,[13]; [27],252 µM
same,Kd,[13]; [28],267 µM
same,ka1,[13]; two-state model,3277 M⁻¹ s⁻¹
same,ka2,[13]; two-state model,0.005907 s⁻¹
same,kd1,[13]; two-state model,1.04 s⁻¹
same,kd2,[13]; two-state model,0.03103 s⁻¹
same,CC50,[19],9.1 ± 0.4 µM
same,viability at 20 µM,[20],100%
"CC(C)=CCCC(C)=CCNC(=O)CNC(C)(C)C12CC3CC(CC(C3)C1)C2 [Compound 15, 2-((2-(Adamantan-1-yl)propan-2-yl)amino)-N-(3,7-dimethylocta-2,6-dien-1-yl)acetamide]",IC50,[1]; [25],31 ± 3 µM
same,IC50,[2]; [26],17 ± 6 µM
same,MIC,[2]; Mycobacterium tuberculosis,12.5 µM
same,MIC,[3],38 µM
same,MIC,[4],38 µM
same,Ec IC50,[8],No inhibition
same,IC50,[9]; Trypanosoma brucei,5.9 ± 0.1 µM
same,IC50,[10]; Trypanosoma cruzi,15 ± 3 µM
same,IC50,"[11]; Trypanosoma cruzi, U2OS",2.6 ± 0.1 µM
same,IC50,[12]; Leishmania donovani,12 ± 8 µM
same,IC50,[17],5 ± 0.1 µM
same,IC50,[18],5.44 ± 0.32 µM
same,CC50,[19],7.1 ± 0.5 µM
same,viability at 2 µM,[20],91%
same,viability at 20 µM,[20],76%
